Measurements: article PMC9525273 (Nature Communications, 2022)
Several values for one entry are separate records, joined by “and”; a condition that tells them apart may be missing. Equal entries are not always repeated. Where two headings read alike, the source gives them in different places.

Target: T1, TgATP4^WT (membranes from T. gondii tachyzoites) (Toxoplasma gondii, UniProt B9QMJ0)
T1 sequence (B9QMJ0 1-1338): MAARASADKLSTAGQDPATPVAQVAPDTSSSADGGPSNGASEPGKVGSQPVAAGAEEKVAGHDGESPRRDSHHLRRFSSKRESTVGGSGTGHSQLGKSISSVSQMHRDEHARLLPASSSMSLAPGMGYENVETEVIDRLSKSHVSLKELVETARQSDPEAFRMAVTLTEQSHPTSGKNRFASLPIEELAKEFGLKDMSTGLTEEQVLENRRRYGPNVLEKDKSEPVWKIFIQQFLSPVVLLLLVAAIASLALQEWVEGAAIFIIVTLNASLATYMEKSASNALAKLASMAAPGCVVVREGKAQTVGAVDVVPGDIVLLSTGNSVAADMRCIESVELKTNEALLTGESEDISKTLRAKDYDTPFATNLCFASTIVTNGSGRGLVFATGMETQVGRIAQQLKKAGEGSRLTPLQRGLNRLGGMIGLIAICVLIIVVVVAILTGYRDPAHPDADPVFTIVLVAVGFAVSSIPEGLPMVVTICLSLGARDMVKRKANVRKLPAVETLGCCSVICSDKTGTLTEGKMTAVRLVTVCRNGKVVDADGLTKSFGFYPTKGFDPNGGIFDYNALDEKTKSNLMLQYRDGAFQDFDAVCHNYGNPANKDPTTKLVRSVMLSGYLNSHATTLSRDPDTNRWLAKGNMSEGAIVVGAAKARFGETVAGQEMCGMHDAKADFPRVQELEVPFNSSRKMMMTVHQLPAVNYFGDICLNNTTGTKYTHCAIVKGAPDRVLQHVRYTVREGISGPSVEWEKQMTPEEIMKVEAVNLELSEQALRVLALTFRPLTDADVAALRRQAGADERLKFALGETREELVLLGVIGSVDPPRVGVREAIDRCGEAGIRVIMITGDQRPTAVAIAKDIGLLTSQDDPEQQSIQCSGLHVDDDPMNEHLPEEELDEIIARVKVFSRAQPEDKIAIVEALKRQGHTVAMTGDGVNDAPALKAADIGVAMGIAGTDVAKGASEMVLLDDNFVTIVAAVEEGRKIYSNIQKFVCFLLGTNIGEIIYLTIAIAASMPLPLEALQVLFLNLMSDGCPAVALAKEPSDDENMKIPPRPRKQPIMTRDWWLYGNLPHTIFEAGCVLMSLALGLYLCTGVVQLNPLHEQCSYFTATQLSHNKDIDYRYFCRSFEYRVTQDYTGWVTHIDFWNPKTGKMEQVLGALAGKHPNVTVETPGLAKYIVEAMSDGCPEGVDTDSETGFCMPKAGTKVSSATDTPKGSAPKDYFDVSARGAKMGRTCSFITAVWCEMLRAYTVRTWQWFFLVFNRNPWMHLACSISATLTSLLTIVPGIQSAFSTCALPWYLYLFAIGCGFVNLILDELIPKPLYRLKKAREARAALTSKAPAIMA
Experiment: Membrane ATPase assay, ATP4-associated (Na+-dependent) ATPase activity
Format: biochemical
Design: IC50 for inhibition of ATP4-associated ATPase activity, MEAN: unit: nM
Conditions: for IC50 for inhibition of ATP4-associated ATPase activity, MEAN: WT T. gondii membranes, source data of Table 1 (nM there); for IC50 for ATP4-associated ATPase activity: membranes from WT T. gondii (TgATP4WT), mean ± SEM
Procedure: Membranes from isolated P. falciparum or extracellular T. gondii parasites were prepared by lysing parasites in ice-cold deionized water containing a 1:500 dilution of Protease Inhibitor Cocktail Set III (Merck Millipore), then washing the membrane preparation three times in ice-cold deionized water (with protease inhibitors present for the first two washes)[15]. Protein concentrations in the membrane preparations were measured using a Bradford assay. The PiColorLock Gold Phosphate Detection System (Innova Biosciences) was used to measure the production of Pi from hydrolysis of ATP[15]. Membrane preparations were diluted in either a high Na^+ solution (yielding final conditions in the reactions of 150 mM NaCl, 20 mM KCl, 2 mM MgCl2, 50 mM Tris, pH 7.2) or a Na^+-free solution (yielding final conditions of 150 mM choline chloride, 20 mM KCl, 2 mM MgCl2, 50 mM Tris, pH 7.2) to achieve a total protein concentration of 50 μg/mL. […] The reactions were performed at 37 °C, and were initiated by the addition of 1 mM ATP (Na2ATP۰3H2O; MP Biomedicals) and terminated 10 min later by adding 100 μL of reaction mixture (in duplicate) to 25 μL “Gold mix” in a 96-well plate. “Stabiliser” was added 3 min later, and the plates incubated at room temperature in the dark for 60 min before measuring absorbance at 635 nm. Background values (averaged from wells containing all components, but to which ATP was not added until after the membrane was exposed to Gold mix) were subtracted from the data. For each treatment, the ATPase activity associated with the (Na^+-dependent) PfATP4 and TgATP4 proteins was calculated by subtracting data obtained in the low Na^+ condition (containing only the 2 mM Na^+ introduced on addition of 1 mM Na2ATP) from that obtained in the high Na^+ condition.

SMILES: C[C@H]1Cc2c([nH]c3cc(Cl)c(F)cc23)[C@@]2(N1)C(=O)Nc1ccc(Cl)cc12 [Cipargamin]
- IC50 for inhibition of ATP4-associated ATPase activity, MEAN (MEAN): 8.39
- remaining activity at 60 pM (WT T. gondii, Cipargamin 0.06 nM, MEAN, read-out: TgATP4-associated ATPase activity (% of control)): 98.4%
- TgATP4-associated ATPase activity (% of control) (WT T. gondii, Cipargamin 0.06 nM, single experiments): 98.0 % of control
- remaining activity at 60 pM (WT T. gondii, Cipargamin 0.06 nM, single experiments, read-out: TgATP4-associated ATPase activity (% of control)): 98.9%
- remaining activity at 0.00012 µM (WT T. gondii, Cipargamin 0.12 nM, MEAN, read-out: TgATP4-associated ATPase activity (% of control)): 101%
- TgATP4-associated ATPase activity (% of control) (WT T. gondii, Cipargamin 0.12 nM, single experiments): 100.0 % of control and 99.7 % of control and 103.4 % of control
- remaining activity at 0.00012 µM (WT T. gondii, Cipargamin 0.12 nM, single experiments, read-out: TgATP4-associated ATPase activity (% of control)): 100%
- remaining activity at 0.00024 µM (WT T. gondii, Cipargamin 0.24 nM, MEAN, read-out: TgATP4-associated ATPase activity (% of control)): 91.8%
- TgATP4-associated ATPase activity (% of control) (WT T. gondii, Cipargamin 0.24 nM, single experiments): 81.4 % of control and 81.6 % of control and 107.2 % of control and 96.9 % of control
- remaining activity at 0.00049 µM (WT T. gondii, Cipargamin 0.49 nM, MEAN, read-out: TgATP4-associated ATPase activity (% of control)): 76.3%
- remaining activity at 0.00098 µM (WT T. gondii, Cipargamin 0.98 nM, MEAN, read-out: TgATP4-associated ATPase activity (% of control)): 66.1%
- remaining activity at 0.00195 µM (WT T. gondii, Cipargamin 1.95 nM, MEAN, read-out: TgATP4-associated ATPase activity (% of control)): 47.3%
- remaining activity at 0.0039 µM (WT T. gondii, [cipargamin] 3.9 nM, MEAN, read-out: TgATP4-associated ATPase activity (% of control)): 34.5%
- remaining activity at 0.0078 µM (WT T. gondii, [cipargamin] 7.8 nM, MEAN, read-out: TgATP4-associated ATPase activity (% of control)): 38.1%
- remaining activity at 0.0156 µM (WT T. gondii, [cipargamin] 15.6 nM, MEAN, read-out: TgATP4-associated ATPase activity (% of control)): 21.9%
- remaining activity at 0.0313 µM (WT T. gondii, [cipargamin] 31.3 nM, MEAN, read-out: TgATP4-associated ATPase activity (% of control)): 13.1%
- remaining activity at 0.0625 µM (WT T. gondii, [cipargamin] 62.5 nM, MEAN, read-out: TgATP4-associated ATPase activity (% of control)): 6.8%
- IC50 for ATP4-associated ATPase activity: 8.4 ± 5.8 (4) nM

SMILES: N#Cc1cc(NC(=O)[C@H]2c3ccccc3C(=O)N(CC(F)(F)F)[C@@H]2c2cccnc2)ccc1F [(+)-SJ733]
- IC50 for inhibition of ATP4-associated ATPase activity, MEAN (MEAN): 17.77
- remaining activity at 0.000122 µM (WT T. gondii, [(+)-SJ733] 0.122 nM, MEAN, read-out: TgATP4-associated ATPase activity (% of control)): 105%
- TgATP4-associated ATPase activity (% of control) (WT T. gondii, [(+)-SJ733] 0.122 nM, single experiments, 0.000122 µM): 99.5 % of control and 113.7 % of control
- remaining activity at 0.000122 µM (WT T. gondii, [(+)-SJ733] 0.122 nM, single experiments, read-out: TgATP4-associated ATPase activity (% of control)): 102%
- remaining activity at 0.000244 µM (WT T. gondii, [(+)-SJ733] 0.244 nM, MEAN, read-out: TgATP4-associated ATPase activity (% of control)): 104%
- TgATP4-associated ATPase activity (% of control) (WT T. gondii, [(+)-SJ733] 0.244 nM, single experiments, 0.000244 µM): 103.7 % of control and 108.4 % of control
- remaining activity at 0.000244 µM (WT T. gondii, [(+)-SJ733] 0.244 nM, single experiments, read-out: TgATP4-associated ATPase activity (% of control)): 99.9%
- remaining activity at 0.0005 µM (WT T. gondii, [(+)-SJ733] 0.5 nM, MEAN, read-out: TgATP4-associated ATPase activity (% of control)): 93.6%
- TgATP4-associated ATPase activity (% of control) (WT T. gondii, [(+)-SJ733] 0.5 nM, single experiments, 0.0005 µM): 96.1 % of control and 95.1 % of control
- remaining activity at 0.0005 µM (WT T. gondii, [(+)-SJ733] 0.5 nM, single experiments, read-out: TgATP4-associated ATPase activity (% of control)): 89.6%
- remaining activity at 0.001 µM (WT T. gondii, [(+)-SJ733] 1.0 nM, MEAN, read-out: TgATP4-associated ATPase activity (% of control)): 102%
- TgATP4-associated ATPase activity (% of control) (WT T. gondii, [(+)-SJ733] 1.0 nM, single experiments, 0.001 µM): 96.8 % of control and 112.7 % of control
- remaining activity at 0.001 µM (WT T. gondii, [(+)-SJ733] 1.0 nM, single experiments, read-out: TgATP4-associated ATPase activity (% of control)): 94.9%
- remaining activity at 0.002 µM (WT T. gondii, [(+)-SJ733] 2.0 nM, MEAN, read-out: TgATP4-associated ATPase activity (% of control)): 95.7%
- TgATP4-associated ATPase activity (% of control) (WT T. gondii, [(+)-SJ733] 2.0 nM, single experiments, 0.002 µM): 71.9 % of control and 96.8 % of control and 118.4 % of control
- remaining activity at 0.0039 µM (WT T. gondii, [(+)-SJ733] 3.9 nM, MEAN, read-out: TgATP4-associated ATPase activity (% of control)): 90.6%
- TgATP4-associated ATPase activity (% of control) (WT T. gondii, [(+)-SJ733] 3.9 nM, single experiments, 0.0039 µM): 69.6 % of control and 88.2 % of control and 113.9 % of control
- remaining activity at 0.0078 µM (WT T. gondii, [(+)-SJ733] 7.8 nM, MEAN, read-out: TgATP4-associated ATPase activity (% of control)): 78.4%
- TgATP4-associated ATPase activity (% of control) (WT T. gondii, [(+)-SJ733] 7.8 nM, single experiments, 0.0078 µM): 63.9 % of control and 63.6 % of control and 107.7 % of control
- remaining activity at 0.0156 µM (WT T. gondii, [(+)-SJ733] 15.6 nM, MEAN, read-out: TgATP4-associated ATPase activity (% of control)): 52.5%
- remaining activity at 0.0313 µM (WT T. gondii, [(+)-SJ733] 31.3 nM, MEAN, read-out: TgATP4-associated ATPase activity (% of control)): 42.7%
- remaining activity at 0.0625 µM (WT T. gondii, [(+)-SJ733] 62.5 nM, MEAN, read-out: TgATP4-associated ATPase activity (% of control)): 31.7%
- remaining activity at 0.25 µM (WT T. gondii, [(+)-SJ733] 250 nM, MEAN, read-out: TgATP4-associated ATPase activity (% of control)): 20.9%
- remaining activity at 0.5 µM (WT T. gondii, [(+)-SJ733] 500 nM, MEAN, read-out: TgATP4-associated ATPase activity (% of control)): 14.7%
- IC50 for ATP4-associated ATPase activity: 17.8 ± 9.2 (3) nM
